Experimental data taken from patent publication US20020188026A1, “Methods of sterilizing with dipercarboxylic acids” (Lynntech, Inc., priority 2000, published 2002).
Several values for one entry are separate records, joined by “and”; a condition that tells them apart may be missing. Identical values can stand only once.

Experiments:
[1] = concentrated peracid solution; cited from earlier work
[2] = Crude estimate of solubility in water; format: physicochemical; conditions: crude experiment, estimated
Text: A crude experiment was done to first estimate the solubility in water of diperglutaric acid (C5), dipersuberic acid (C8), and dipersebacic acid (C10) prepared in accordance with Example 1. It was estimated that the limit of solubility of these peracids in water was 10%, 0.8%, and 0.1% wt/v for diperglutaric, dipersuberic, and dipersebacic, respectively.

[3] = tested on: S. aureus; test: Biopsy punch enumeration; format: cell-based; conditions: 1% treatment
Protocol: (§1) Biopsy punch enumeration is an extension of the zone of inhibition test, which involves enumerating organisms on the surface or within a removed core (punch). This test provides a quantitative analysis of the viable organisms remaining after treatment. This procedure was carried out exactly the same as the zone of inhibition testing. After incubation, however, the disc was removed from the plate and a 6-mm core was taken with a sterile, disposable biopsy punch precisely in the location where the disc had been removed. The same three organisms were used and the following treatments were sampled in duplicate: 1.0% diperglutaric acid and 1.0% glutaric acid in water. The core of each plate was aseptically placed in a microcentrifuge tube with 1 ml of sterile 0.85% saline solution and placed on a vortex for 5 minutes. These samples were diluted and plated in duplicate on nutrient agar and allowed to incubate at 37° C. for 18-24 hours for enumeration.

[4] = tested on: P. aeruginosa; test: Biopsy punch enumeration; format: cell-based; conditions: 1% treatment
Protocol: as §1

[5] = tested on: E. coli; test: Biopsy punch enumeration; format: cell-based; conditions: 1% treatment
Protocol: as §1

[6] = tested on: Bacillus subtilis spores; test: Sporicidal testing, spores heat fixed to glass slides; format: cell-based; conditions: for Log10 post-disinfection count (cfu/coupon): pre-disinfection 6.69
Protocol: Additional spore testing experiments were done with diperglutaric acid. In this example, the diperglutaric acid was dissolved in a 90% water and 10% ethanol solution and used to kill Bacillus subtilis spores. […] Sporicidal capabilities of diperglutaric acid were tested at various concentrations. These procedures called for a 30-minute treatment of Bacillus subtilis spores heat fixed to glass slides. Glass slides were cut in half lengthwise. A suspension of spores, obtained from Steris Corporation of Mentor, Ohio (order #Na026) in 10% bovine serum albumin (as a simulated organic load) was prepared at a concentration of 1.2×10^8 spores per mL. 100 μL of this suspension was heat-fixed to each glass slide. These slides were immersed in the following dilutions of the diperglutaric acid: 2%, 1%, 0.3%, 0.1%, and 0.03%.
Control slides were treated in glutaric acid: 2% and 1% in a 10% ethanol/water solution. All treatment concentrations were tested in duplicate. The spore coupons were immersed in 30 ml of test solution for 30 minutes. Following the treatment, the slides were rinsed in sterile water to remove residual acid. Each slide was then placed in a sterile 15-ml test tube containing 2 ml of sterile water. These tubes were sonicated for one hour to resuspend all spores. The sonicated slides were removed from the test tubes. The remaining solutions were serially diluted, plated in duplicate on nutrient agar and incubated for 18-24 hours at 37° C.
The control values (pre-disinfection counts) were obtained from spore carriers immersed in sterile distilled water for 30 minutes prior to rinsing, recovery, and enumeration. The average log10 recovery from these controls was log106.69 per carrier. This compares favorably with the initial number of spores added, which was log107.08. The number of viable spores recovered was 40% of the number initially applied. […] Losses of 90% or less are generally considered acceptable in this type of experiment. […] A log reduction of less than log100.5cfu/carrier was achieved. Thus, the unreacted parent carboxylic acid has little effect on spores. […] Even at a concentration of 0.33%, the diperglutaric acid's effect on spores was similar to that of 2% glutaraldehyde.

[7] = tested on: Psuedomonas aeruginosa; test: Zone of inhibition test; format: cell-based; conditions: P. aeruginosa, 20 μL on 6 mm disc, duplicate experiments
Protocol: (§2) Zone of inhibition tests are qualitative screens for the inhibitory effect of the compound being tested. Clear zones created by a compound on a bacterial lawn indicates bacteriostatic ability and possible bactericidal capability and the size of the zone of inhibition is a semi-qualitative measure of the strength of the compound. The procedure involved creating lawns of bacteria by spreading 100 μL of broth culture evenly on nutrient agar plates. The bacteria were drawn from broth cultures that had recently reached maximum density. The organisms were Staphylococcus aureus, Psuedomonas aeruginosa, and Escherichia coli. Sterile, 6 mm, white paper discs were placed in the middle of each bacterial lawn. 20 μL of treatment were dispensed onto the surface of each disc. The treatments were: 1.0% and 0.033% diperglutaric acid, 1.0% glutaric acid in water. Each treatment was performed in duplicate for each organism. The plates were incubated at 37° C. for 18-24 hours. All zones were then measured in millimeters across the diameter of the zone of inhibition.

[8] = tested on: Escherichia coli; test: Zone of inhibition test; format: cell-based; conditions: E. coli, 20 μL on 6 mm disc, duplicate experiments
Protocol: as §2

[9] = tested on: Staphylococcus aureus; test: Zone of inhibition test; format: cell-based; conditions: S. aureus, 20 μL on 6 mm disc, duplicate experiments
Protocol: as §2

[10] = 2.0% freshly prepared glutaraldehyde preparation

In the case of `O=C(CCC(=O)OO)OO` [dipersuccinic acid, reference compound], the “stability of peracid concentrate” value [1] is given as “did not form stable peracid concentrates”.

With `O=C(CCCCCCCCC(=O)OO)OO` [dipersebacic acid] the “limit of solubility in water” value [2] was 0.1 % wt/v.

In the case of `O=C(CCCCC(=O)OO)OO` [diperadipic acid], the “solubility for peracid concentrate solution” value [1] is given as “not soluble enough to prepare an adequate peracid concentrate solution”.

In the case of `O=C(CCCCCCC(=O)OO)OO` [dipersuberic acid], the “limit of solubility in water” value [2] is reported as 0.8 % wt/v.

In the case of `O=C(O)CCCC(=O)O` [Glutaric acid, reference compound], the “Log10 reduction (cfu/6 mm diameter sample)” value [3] is reported as 0.63 cfu/6 mm diameter sample, the “Log10 postdisinfection count (cfu/6 mm diameter sample)” value ([3]; predisinfection 8.11) is reported as 7.48 cfu/6 mm diameter sample and the “Log10 reduction (cfu/6 mm diameter sample)” value [4] is reported as 0.00 cfu/6 mm diameter sample. The “Log10 postdisinfection count (cfu/6 mm diameter sample)” value ([4]; predisinfection 7.53) was 7.57 cfu/6 mm diameter sample, the “Log10 postdisinfection count (cfu/6 mm diameter sample)” value ([5]; predisinfection 7.44) was 6.75 cfu/6 mm diameter sample and the “Average log10 postdisinfection count (cfu/coupon)” value ([6]; 1.0% in 10% EtOH, 30 minutes) was 6.23 cfu/coupon. For the same molecule, the “Average log10 reduction (cfu/coupon)” value ([6]; 1.0% in 10% EtOH, 30 minutes) was 0.46 cfu/coupon, the “Log10 post-disinfection count (cfu/coupon)” value ([6]; 1.0% in 10% EtOH, 30 minutes) was 6.26 cfu/coupon and 6.19 cfu/coupon and the “Average log10 postdisinfection count (cfu/coupon)” value ([6]; 2.0% in 10% EtOH, 30 minutes) was 6.26 cfu/coupon. The “Average log10 reduction (cfu/coupon)” value ([6]; 2.0% in 10% EtOH, 30 minutes) was 0.43 cfu/coupon, the “Log10 post-disinfection count (cfu/coupon)” value ([6]; 2.0% in 10% EtOH, 30 minutes) was 6.27 cfu/coupon and 6.24 cfu/coupon and the “sporicidal effectiveness” value ([6]; concentrations of 1% and 2% for 30 minutes) was “not an effective sporicidal agent”. The “Diameter of Zones of Inhibition” value ([7]; 1% in water) was “No zone”, the “Diameter of Zones of Inhibition” value ([8]; 1% in water) was “No zone” and the “Diameter of Zones of Inhibition” value ([9]; 1% in water) was “No zone”.

For `O=C(CCCC(=O)OO)OO` [Diperglutaric acid, diperglutaric acid], the “limit of solubility in water” value [2] was 10 % wt/v, the “Log10 reduction (cfu/6 mm diameter sample)” value [3] was 8.11 cfu/6 mm diameter sample and the “Log10 reduction (cfu/6 mm diameter sample)” value [4] was 7.53 cfu/6 mm diameter sample. The “Log10 reduction (cfu/6 mm diameter sample)” value [5] was 7.44 log10, the “Average log10 postdisinfection count (cfu/coupon)” value ([6]; 0.033% in 10% EtOH, 30 minutes) was 4.99 cfu/coupon and the “Average log10 reduction (cfu/coupon)” value ([6]; 0.033% in 10% EtOH, 30 minutes) was 1.70 cfu/coupon. For the same molecule, the “Average log10 postdisinfection count (cfu/coupon)” value ([6]; 0.1% in 10% EtOH, 30 minutes) was 4.72 cfu/coupon, the “Average log10 reduction (cfu/coupon)” value ([6]; 0.1% in 10% EtOH, 30 minutes) was 1.97 cfu/coupon and the “Average log10 postdisinfection count (cfu/coupon)” value ([6]; 0.33% in 10% EtOH, 30 minutes) was 3.57 cfu/coupon. For the same molecule, the “Average log10 reduction (cfu/coupon)” value ([6]; 0.33% in 10% EtOH, 30 minutes) was 3.12 cfu/coupon, the “Log10 post-disinfection count (cfu/coupon)” value ([6]; 0.33% in 10% EtOH, 30 minutes) was 3.62 cfu/coupon and 3.52 cfu/coupon and the “viable spores recovered from carriers” value ([6]; 1% and 2% for 30 minutes) was “no viable spores were recovered”. The “Average log10 postdisinfection count (cfu/coupon)” value ([6]; 1.0% in 10% EtOH, 30 minutes) was under 1.0 cfu/coupon, the “Average log10 reduction (cfu/coupon)” value ([6]; 1.0% in 10% EtOH, 30 minutes) was 6.69 cfu/coupon and the “Average log10 postdisinfection count (cfu/coupon)” value ([6]; 2.0% in 10% EtOH, 30 minutes) was under 1.0 cfu/coupon. The “Average log10 reduction (cfu/coupon)” value ([6]; 2.0% in 10% EtOH, 30 minutes) was 6.69 cfu/coupon, the “Diameter of Zones of Inhibition” value ([7]; 0.033%) was 10 mm and 11 mm and the “Diameter of Zones of Inhibition” value ([7]; 1% in water) was 12 mm, 12 mm. For the same molecule, the “Diameter of Zones of Inhibition” value ([8]; 0.033%) was 10 mm, 10 mm, the “Diameter of Zones of Inhibition” value ([8]; 1% in water) was 12 mm and 13 mm and the “Diameter of Zones of Inhibition” value ([9]; 0.033%) was 10 mm and 9 mm. The “Diameter of Zones of Inhibition” value ([9]; 1% in water) was 13 mm, 13 mm.

With `O=CCCCC=O` [Glutaraldehyde, reference compound] the “Average log10 postdisinfection count (cfu/coupon)” value [6, 10] was 3.10 cfu/coupon and the “Average log10 reduction (cfu/coupon)” value [6, 10] was 3.05 cfu/coupon.
